Measurements taken from US10725042B2, “Methods of diagnosing and treating cancer” (Case Western Reserve University, priority 2012, dated 2020).

Experiments:
DLD1/UDG−/− cells = experiment: Colony survival (clonogenic) assay, UDG−/− cells; type: cell-based, human; details: 5-FU 0-20 μM, temozolomide 0-1500 μM, cisplatin 0-40 μM
Protocol: Recombinant virus was grown in 293T cells and subsequently used to infect DLD1 cells. Selection of positively transfected clones was achieved by the addition of G418 to the culture medium. A second infection of transfected clones with Cre-recombinase adenovirus caused excision of the neomycin resistance cassette. Dflag cell line was produced by transfection of UDG expression vector in UDG^−/− cells to restore UDG activity.
Tumor cells (500-2000/dish) were plated and treated with pemetrexed (0-400 nM), 5-fluorouracil (0-20 μM), temozolomide (0-1500 μM), or cisplatin (0-40 μM). After 7 days, surviving colonies were stained with methylene blue for 30 min at room temperature and the colonies containing more than 50 cells were counted to generate survival curves.

H1975 66 shUNG cells = experiment: Colony survival assay, H1975 66 shUNG cells; type: cell-based, human
Protocol: (§1) For cells in suspension, colony survival was determined by crystal violet staining of colonies formed after 10-day exposure of 5×10^3 cells to pemetrexed in soft agar. For adherent cells, colony survival was determined by methylene blue staining of colonies formed after 10-day exposure of 100 cells to pemetrexed in 6-well culture dishes. Only colonies containing ≥50 cells were counted. Data points represent percent of colonies relative to untreated control averaged over 3 experiments.
UNG directed shRNA and siRNA plasmids were purchased from Origene. Transfection was carried out according to manufacturer specifications. Stably transfected clones (shRNA) were selected with puromycin with subsequent expansion of a well-isolated colony of cells.

H1299/PR-1 cells = experiment: Colony survival assay, H1299/PR-1 pemetrexed-resistant subline; type: cell-based, human; details: PR-1 and PR-2 cells
Protocol: as §1
H1299 cells were exposed to step-wise increasing concentrations of pemetrexed over a period of 4 months. UNG expression was monitored in the bulk population at 2, 8, 12 and 16 weeks prior to administration of the induction dosage and at 24 weeks in a population of bulk chronically exposed cells that had been without pemetrexed for 8 weeks. H1299 cells capable of growth in 50 nM pemetrexed selection pressure were subcloned by limiting dilution in 96 well plates. Independent sublines were designated H1299/PR-1 and H1299/PR-2.

UNG−/− MEFs = details: treated UNG−/− MEFs; cited from earlier work
[1] = tested on: 293t cells expressing the bacteriophage UNG inhibitor Ugi; details: treated 293t cells expressing Ugi; cited from earlier work
cell culture = experiment: Tolerance of MX in cell culture; type: cell-based; details: MX at 3 mM
[2] = tested on: uracil in DNA of UDG−/− cells; experiment: Uracil in DNA by HPLC/MS/MS, UDG−/− cells; type: cell-based, human; details: UDG−/− cells; drug 10 μM, 6-72 hr
Protocol: UDG^−/− and UDG^+/+ cells were exposed to pemetrexed (10 μM) or 5-fluorouracil (10 μM) for 6, 24, 48 and 72 hrs. At indicated time points, cells were harvested and genomic DNA was extracted by phenol/chloroform. Forty μg of DNA were incubated with 10 U of purified UDG (New England Biolabs) in 60 μL of reaction buffer at 37° C. for 2 hrs. The reaction products were dried at 35° C. in a Turbovap under a stream of nitrogen and reconstituted in 150 μL 90% acetonitrile. The analyte was retained by an Atlantis Hilis Silica analytical column (2.1×100 mm, 3.5 μM) and eluted isocratically by a mixture of 90% acetonitrile and 10% 2.0 mM ammonium formate at a flow rate of 0.2 ml/min. The detection was done by an API 3200 MS/MS mass spectrometer.

## N.N.[Cl][Pt][Cl] [cisplatin]
DLD1/UDG−/− cells
  differential sensitivity of UDG−/− vs UDG+/+ cells: no significant differential sensitivity
H1975 66 shUNG cells
  cross sensitivity of UNG deficient H1975 cells: not
H1299/PR-1 cells
  cross-resistance of PR-1 and PR-2 cells: not resistant

## O=c1[nH]c(=O)n([C@H]2C[C@H](O)[C@@H](CO)O2)cc1F [FdUrd]
UNG−/− MEFs
  increase in uracil: 1.5 fold

## Cc1nc2ccc(CN(C)c3ccc(C(=O)N[C@@H](CCC(=O)O)C(=O)O)s3)cc2c(=O)[nH]1 [raltitrexed]
H1975 66 shUNG cells
  cross sensitivity of UNG deficient H1975 cells: some cross sensitivity
[1]
  increase in uracil: 8 fold
H1299/PR-1 cells
  cross-resistance of PR-1 and PR-2 cells: cross-resistance

## Cc1cn([C@H]2C[C@H](O)[C@@H](CO)O2)c(=O)[nH]c1=O [thymidine]
H1975 66 shUNG cells; H1975 shUNG cells, 10 μM thymidine
  effect of supplemental thymidine on pemetrexed sensitivity: rescued pemetrexed sensitivity

## CON [MX, methoxyamine]
Cell culture
  tolerance in cell culture: well tolerated

## O=c1[nH]cc(F)c(=O)[nH]1 [5-FU, 5-fluorouracil]
UNG−/− MEFs
  increase in uracil: 1.5 fold
DLD1/UDG−/− cells
  differential sensitivity of UDG−/− vs UDG+/+ cells: more sensitive
[2]
  uracil detected in DNA: greater retention of uracil
H1975 66 shUNG cells
  cross sensitivity of UNG deficient H1975 cells: some cross sensitivity
H1299/PR-1 cells
  cross-resistance of PR-1 and PR-2 cells: cross-resistance
